These results are taken from patent US20250136568A1, “FUSED HETEROCYCLIC COMPOUNDS AS PI3KALPHA INHIBITORS” (Nanjing Zenshine Pharmaceuticals Co., Ltd., priority 2021, published 2025).

What is called IC50 is the point on the concentration scale where inhibition reaches its midpoint.

Experiment [1] concerns PI3Kα H1047R mutation cell line MDA-MB-453. The experiment is described as follows: Cell Proliferation IC50 Assay (CellTiter-Glo), MDA-MB-453. It counts as cell-based. Conditions: Homo sapiens, read-out: IC50 (μM) MDA-MB-453. The text has this:
PI3Kα H1047R mutation cell line T-47D and MDA-MB-453, E545K mutation cell line MDA-MB-361 and PI3Kα wide type cell line SK-BR-3 were purchased from Cobioer Biotech (cat. no CBP60397, CBP60386, CBP60383 and CBP60413 respectively). The CellTiter-Glo Direct Cell Proliferation Assay Kit was purchased from Prornega (cat. No. G7573)
For cell proliferation assay in each cell line: • a. Prepare complete medium (R PMI 1640, DMEM or McCoys): Add FBS and appropriate additives according to the information sheet provided by the vendor. Mix gently. • b. Prepare single cell suspension and count the cell numbers and adjust cells to appropriate density. • c. Add 80 μL of cell suspension to 96-well opaque-walled clear bottom plates according to the planned plate layout and place the plates in the CO2 incubator overnight. • d. Prepare intermediate plate: 10 μl of diluted test compounds or staurosporine solution (200×) is added to a 96 deep well plate. Then 390 μl of culture medium without FBS is added to the respective wells. • e. Transfer 20 μL of the solutions from the above intermediate plate to the wells of the plate prepared containing 80 μL of the culture medium and cells. The total dilution is 200 folds. • f. The cells were then incubated at 5% CO2, 37° C. for 72 hours. • g. Equilibrate the plate and its contents to room temperature for approximately 30 minutes. • h. Add 100 μL of CellTiter-Glo reagent to the assay plate • i. Mix contents for 10 minutes on an orbital shaker to induce cell lysis. • j. Allow the plate to incubate at room temperature for 10 minutes to stabilize luminescent signal, • k. Paste the clear bottom with white back seal and record luminescence with Varioskan LUX plate reader.
Inhibition % and IC50 value were calculated by the formula described below: […]

The subject of experiment [2] is PI3Kα wide type cell line SK-BR-3. The experiment in a line: Cell Proliferation IC50 Assay (CellTiter-Glo), SK-BR-3. It is filed as cell-based. Particulars: Homo sapiens; SK-BR-3 (PI3Kα wild type), 72 hours, CellTiter-Glo; read-out: IC50 (μM) SK-BR-3. The procedure, abridged:
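Read-out was CellTiter-Glo luminescence after 72 h of compound exposure at 37 °C, 5% CO2. Cells had been plated overnight in complete medium before the compound was added at a 200-fold final dilution. IC50 was derived from percent inhibition.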
A general note: In ATP-based viability assays light output follows the ATP content of the culture.

The mark [3] stands for this setting: MDA-MB-453 (H1047R), 72 hours, CellTiter-Glo.

Read-outs that look alike come from different tables or passages of the source.

For the molecule `Cc1cc(C(C)Nc2ccccc2C(=O)O)c2oc(-c3ccc4nn(C5COC5)cc4c3)cc(=O)c2c1` (stereo not drawn) [Example 56, 2-((1-(6-methyl-2-(2-(oxetan-3-yl)-2H-indazol-5-yl)-4-oxo-4H-chromen-8-yl)ethyl)amino)benzoic acid], the figures for the IC50 in experiment [1] (setting [3]) and in experiment [2] were 0.55 µM and greater than 10 µM, respectively.
As to `Cc1cc(C(C)Nc2ccccc2C(=O)O)c2oc(C3CCC(c4ccccc4)CC3)c(C)c(=O)c2c1` (stereo not drawn) [Example 130, 2-((1-(3,6-dimethyl-4-oxo-2-(4-phenylcyclohexyl)-411-chromen-8-yl)ethyl)amino)benzoic acid], the IC50 in experiment [1] (setting [3]) and in experiment [2] was greater than 10 µM throughout.
Regarding `Cc1cc(C(C)Nc2ccccc2C(=O)O)c2oc(-c3ccc4cn(C)nc4c3)cc(=O)c2c1` (stereo not drawn) [Example 51, 2-((1-(6-methyl-2-(2-methyl-211-indazol-6-yl)-4-oxo-4H-chromen-8-yl)ethyl)amino)benzoic acid], the IC50 in experiment [1] (setting [3]) is 2.48 µM; in experiment [2] it was greater than 10 µM.
For `Cc1cc(C(C)Nc2ccccc2C(=O)O)c2oc(-c3ccc(S(C)(=O)=O)cc3)c(C)c(=O)c2c1` (stereo not drawn) [Example 127, 2-((1-(3,6-dimethyl-2-(4-(methylsulfonyl)phenyl)-4-oxo-4H-chromen-8-yl)ethyl)amino)benzoic acid], in that order: greater than 10 µM and greater than 10 µM.
For `Cc1cc([C@@H](C)Nc2ccccc2C(=O)O)c2oc(-c3ccnc(C(=O)N(C)C)c3)c(C)c(=O)c2c1` [Example 134, (R)-2-((1-(2-(2-(dimethylcarbamoyl)pyridin-4-yl)-3,6-dimethyl-4-oxo-4H-chromen-8-yl)ethyl)amino)benzoic acid] the same measures were 0.56 µM and greater than 10 µM.
For `Cc1cc(C(C)Nc2ccccc2C(=O)O)c2oc(-c3ccc4nn(C)cc4n3)cc(=O)c2c1` (stereo not drawn) [Example 84, 2-((1-(6-methyl-2-(2-methyl-2H-pyrazolo[4,3-b]pyridin-5-yl)-4-oxo-4H-chromen-8-yl)ethyl)amino)benzoic acid], in that order: 0.26 µM and greater than 10 µM.
Regarding `COCCn1cc2cc(-c3cc(=O)c4cc(C)cc(C(C)Nc5ccccc5C(=O)O)c4o3)ccc2n1` (stereo not drawn) [Example 58, 2-((1-(2-(2-(2-methoxyethyl)-211-indazol-5-yl)-6-methyl-4-oxo-4H-chromen-8-yl)ethyl)amino)benzoic acid], the values for the IC50 in experiment [1] (setting [3]) and in experiment [2] were 0.27 µM and greater than 10 µM, respectively.
As to `Cc1cc(C(C)Nc2ccccc2C(=O)O)c2oc(-c3ccc4ncn(C)c4c3)cc(=O)c2c1` (stereo not drawn) [Example 60, 2-((1-(6-methyl-2-(1-methyl-1H-benzo[d]imidazol-6-yl)-4-oxo-4H-chromen-8-yl)ethyl)amino)benzoic acid], the results for the IC50 in experiment [1] (setting [3]) and in experiment [2] were 6 µM and greater than 10 µM, respectively.
For `Cc1cc(C(C)Nc2ccccc2C(=O)O)c2oc(-c3ccc(N4CCOC(C)C4)cc3)cc(=O)c2c1` (stereo not drawn) [Example 67, 2-((1-(6-methyl-2-(4-(2-methylmorpholino)phenyl)-4-oxo-4H-chromen-8-yl)ethyl)amino)benzoic acid], in that order: 0.2 µM and greater than 10 µM.
For `Cc1cc(C(C)Nc2ccccc2C(=O)O)c2oc(-c3ccc4c(=O)n(C)ccc4c3)cc(=O)c2c1` (stereo not drawn) [Example 120, 2-((1-(6-methyl-2-(2-methyl-1-oxo-1,2-dihydroisoquinolin-6-yl)-4-oxo-4H-chromen-8-yl)ethyl)amino)benzoic acid] the same measures were 1.18 µM and greater than 10 µM.
For `CC(=O)N1CCN(c2ccc(-c3cc(=O)c4cc(C)cc(C(C)Nc5ccccc5C(=O)O)c4o3)cc2)CC1` (stereo not drawn) [Example 65, 2-((1-(2-(4-(4-acetylpiperazin-1-yl)phenyl)-6-methyl-4-oxo-4H-chromen-8-yl)ethyl)amino)benzoic acid] the same measures were 0.21 µM and greater than 10 µM.
On to `Cc1cc(C(C)Nc2ccccc2C(=O)O)c2oc(-c3cc4cn(C)nc4cc3C)cc(=O)c2c1` (stereo not drawn) [Example 61, 2-((1-(2-(2,6-dimethyl-21-indazol-5-yl)-6-methyl-4-oxo-4H-chromen-8-yl)ethyl)amino)benzoic acid], for which the IC50 in experiment [1] (setting [3]) is 8.48 µM; in experiment [2] it was greater than 10 µM.
With `Cc1cc(C(C)Nc2ccccc2C(=O)O)c2oc(-c3ccc4nn(C)nc4c3)cc(=O)c2c1` (stereo not drawn) [Example 69, 2-((1-(6-methyl-2-(2-methyl-2H-benzo[d][1,2,3]triazol-5-yl)-4-oxo-4H-chromen-8-yl)ethyl)amino)benzoic acid], the IC50 in experiment [1] (setting [3]) was 1.06 µM; in experiment [2], greater than 10 µM.
For `Cc1cc(C(C)Nc2ccccc2C(=O)O)c2oc(-c3ccc4c(c3)CCN(C)C4=O)cc(=O)c2c1` (stereo not drawn) [Example 47, 2-((1-(6-methyl-2-(2-methyl-1-oxo-1,2,3,4-tetrahydroisoquinolin-6-yl)-4-oxo-4H-chromen-8-yl)ethyl)amino)benzoic acid] the same measures were 0.24 µM and greater than 10 µM.
On to `CCN1Cc2cc(-c3cc(=O)c4cc(C)cc(C(C)Nc5ccccc5C(=O)O)c4o3)ccc2C1=O` (stereo not drawn) [Example 7, 2-((1-(2-(2-ethyl-1-oxoisoindolin-5-yl)-6-methyl-4-oxo-4H-chromen-8-yl)ethyl)amino)benzoic acid], for which the IC50 in experiment [1] (setting [3]) was 0.25 µM; in experiment [2], greater than 10 µM.
For `Cc1cc(C(C)Nc2ccccc2C(=O)O)c2oc(-c3ccc4c(=O)n(C)ncc4c3)cc(=O)c2c1` (stereo not drawn) [Example 122, 2-((1-(6-methyl-2-(2-methyl-1-oxo-1,2-dihydrophthalazin-6-yl)-4-oxo-4H-chromen-8-yl)ethyl)amino)benzoic acid], in that order: 0.56 µM and greater than 10 µM.
With `Cc1cc(C(C)Nc2ccccc2C(=O)O)c2oc(C3CCN(c4ccccn4)CC3)c(C)c(=O)c2c1` (stereo not drawn) [Example 124, 2-((1-(3,6-dimethyl-4-oxo-2-(1-(pyridin-2-yl)piperidin-4-yl)-4H-chromen-8-yl)ethyl)amino)benzoic acid], the IC50 in experiment [1] (MDA-MB-453, 72 h) is 0.5 µM; in experiment [2], greater than 10 µM.
`Cc1cc(C(C)Nc2ccccc2C(=O)O)c2oc(-c3ccc(N4CCS(=O)(=O)CC4)cc3)c(C)c(=O)c2c1` (stereo not drawn) [Example 132, 2-((1-(2-(4-(1,1-dioxidothiomorpholino)phenyl)-3,6-dimethyl-4-oxo-4H-chromen-8-yl)ethyl)amino)benzoic acid]: the IC50 in experiment [1] (setting [3]) was 0.27 µM; in experiment [2], greater than 10 µM.
For `Cc1cc(C(C)Nc2ccccc2C(=O)O)c2oc(-c3ccc4c(c3)CN(C(C)C)C4=O)cc(=O)c2c1` (stereo not drawn) [Example 44, -((1-(2-(2-isopropyl-1-oxoisoindolin-5-yl)-6-methyl-4-oxo-4H-chromen-8-yl)ethyl)amino)benzoic acid], in that order: 0.39 µM and greater than 10 µM.
For `Cc1cc([C@H](C)Nc2ccccc2C(=O)O)c2oc(-c3ccc(N4CCOCC4)cc3)c(C)c(=O)c2c1` (single isomer, unassigned) [Example 53B] the same measures were 2.34 µM and greater than 10 µM.
For `Cc1cc(C(C)Nc2ccccc2C(=O)O)c2oc(-c3ccc(N4CCOCC4C)cc3)cc(=O)c2c1` (stereo not drawn) [Example 66, 2-((1-(6-methyl-2-(4-(3-methylmorpholino)phenyl)-4-oxo-4H-chromen-8-yl)ethyl)amino)benzoic acid] the same measures were 0.2 µM and greater than 10 µM.
On to `Cc1cc(C(C)Nc2ccccc2C(=O)O)c2oc(-c3cncs3)cc(=O)c2c1` (stereo not drawn) [Example 27, 2-((1-(6-methyl-4-oxo-2-(thiazol-5-yl)-4H-chromen-8-yl)ethyl)amino)benzoic acid], for which the IC50 is 0.74 µM in experiment [1] (setting [3]) and greater than 10 µM in experiment [2].
For `Cc1cc(C(C)Nc2ccccc2C(=O)O)c2oc(-c3ccc4c(c3)CN(C3COC3)C4=O)cc(=O)c2c1` (stereo not drawn) [Example 45, 2-((1-(6-methyl-2-(2-(oxetan-3-yl)-1-oxoisoindolin-5-yl)-4-oxo-411-chromen-8-yl)ethyl)amino)benzoic acid] the same measures were 0.97 µM and greater than 10 µM.
For `Cc1cc([C@@H](C)Nc2ccccc2C(=O)O)c2oc(-c3ccnc(N4CCOCC4)c3)c(C)c(=O)c2c1` [Example 133, (R)-2-((1-(3,6-dimethyl-2-(2-morpholinopyridin-4-yl)-4-oxo-411-chromen-8-yl)ethyl)amino)benzoic acid] the same measures were 1.18 µM and greater than 10 µM.
